Test systems include PC-3 prostate; UACC-257 melanoma; U251 CNS; NCI-H522 lung; T-47D breast; LOX IMVI melanoma; HS 578T breast; OVCAR-5 ovarian; UACC-62 melanoma; OVCAR-4 ovarian.
Common to all, as to test: NCI tumour cell line growth inhibition, 48 h

The structures appear in SMILES notation. “And” between values parts separate entries of the source, which are not always exact repeats. Equal entries are not always repeated.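 Growth conditions: 96-well plates. Treatment: test compound, 48 hours, 5 concentrations. Analysis: linear interpolation between bracketing concentrations; unreached endpoints set to highest concentration. Here, GI50 denotes the concentration required for 50% inhibition of growth. TGI is the concentration that stops growth completely.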

Regarding `COc1ccc2cc(-c3c(-c4ccncc4)nc(-c4ccc(S(C)=O)cc4C)n3C)ccc2c1` (stereo not given), the GI50 with PC-3 prostate is 15.9 µM; in the assay with UACC-257 melanoma it was 14.8 µM; in the assay with U251 CNS it was more than 23.2 µM; in the assay on NCI-H522 lung, 10.6 µM; in the assay with T-47D breast, 8.78 µM; in the assay on LOX IMVI melanoma, 16.4 µM. Besides, the GI50 in the assay with HS 578T breast is more than 25 µM; with OVCAR-5 ovarian, more than 25 µM; in the assay with UACC-62 melanoma, 13.8 µM; in the assay with OVCAR-4 ovarian, 16.3 µM. The TGI with PC-3 prostate, in the assay with UACC-257 melanoma, in the assay with U251 CNS, in the assay on NCI-H522 lung, in the assay with T-47D breast and in the assay on LOX IMVI melanoma was more than 25 µM throughout. Also, the TGI with HS 578T breast, in the assay with OVCAR-5 ovarian, in the assay on UACC-62 melanoma and with OVCAR-4 ovarian was more than 25 µM throughout.

`COc1ccc(C(=O)C[C@]2(O)C(=O)Nc3c(Cl)ccc(Cl)c32)cc1`: the GI50 was 1.16 µM in the assay on PC-3 prostate; 50.3 µM with UACC-257 melanoma; 0.508 µM in the assay with U251 CNS; 0.317 µM in the assay on NCI-H522 lung; 0.498 µM in the assay with T-47D breast; 0.581 µM in the assay with LOX IMVI melanoma. The GI50 in the assay on HS 578T breast is 0.555 µM; with OVCAR-5 ovarian, 2.43 µM; in the assay with UACC-62 melanoma, 0.486 µM; in the assay with OVCAR-4 ovarian, 12 µM. Further, the TGI in the assay on PC-3 prostate, in the assay on UACC-257 melanoma, with U251 CNS, in the assay on T-47D breast, with LOX IMVI melanoma and with HS 578T breast was more than 100 µM in each case. In addition, the TGI in the assay with OVCAR-5 ovarian, in the assay on UACC-62 melanoma and in the assay with OVCAR-4 ovarian was more than 100 µM in each case.

As for `COc1ccc(-c2cc(/C=C/C(=O)c3cc(OC)c(OC)c(OC)c3)[nH]n2)cc1OC`, the GI50 is 1.99 µM in the assay on PC-3 prostate; 1.79 µM in the assay on UACC-257 melanoma; 1.24 µM in the assay with U251 CNS; 1.33 µM in the assay on NCI-H522 lung; 1.01 µM in the assay with T-47D breast; 1.46 µM with LOX IMVI melanoma. Besides, the GI50 is 2.91 µM in the assay with HS 578T breast, 1.76 µM in the assay on OVCAR-5 ovarian, 1.79 µM with UACC-62 melanoma and 1.62 µM in the assay on OVCAR-4 ovarian. The TGI was 10.3 µM in the assay on PC-3 prostate; 3.8 µM in the assay with UACC-257 melanoma; 2.53 µM with U251 CNS; 2.68 µM with NCI-H522 lung; 3.76 µM in the assay with T-47D breast; 2.88 µM in the assay with LOX IMVI melanoma. For the same compound, the TGI was 22.2 µM in the assay with HS 578T breast, 4.31 µM in the assay with OVCAR-5 ovarian, 3.88 µM with UACC-62 melanoma and 7.17 µM in the assay with OVCAR-4 ovarian.

In the case of `Cc1cc(NC(=O)NC(=O)c2ccccc2N(C)C)ccc1Oc1ncc(Br)cn1`, the TGI is more than 63.1 µM in the assay with PC-3 prostate; more than 100 µM in the assay with UACC-257 melanoma; 39.8 µM in the assay with U251 CNS; 0.408 µM and 0.587 µM in the assay on NCI-H522 lung; more than 56.2 µM with T-47D breast; more than 63.1 µM in the assay on LOX IMVI melanoma. Also, the TGI is more than 100 µM in the assay with HS 578T breast, more than 67.5 µM with OVCAR-5 ovarian, more than 100 µM in the assay with UACC-62 melanoma and more than 68.1 µM in the assay with OVCAR-4 ovarian. In addition, the GI50 is 0.436 µM with U251 CNS; 0.164 µM in the assay with NCI-H522 lung; 0.582 µM in the assay on LOX IMVI melanoma; 2.61 µM with OVCAR-5 ovarian; 3.45 µM in the assay with OVCAR-4 ovarian.

Regarding `COc1ccc(-c2nc3c(c(=O)n2C(C)=O)C(c2ccc(Cl)cc2)c2sc4c(Cl)cccc4c2O3)cc1` (stereo not given), the GI50 in the assay on PC-3 prostate is 0.337 µM; in the assay with UACC-257 melanoma, 0.776 µM; with U251 CNS, 0.483 µM; in the assay on NCI-H522 lung, 0.259 µM; in the assay on T-47D breast, 0.326 µM; in the assay with LOX IMVI melanoma, 0.504 µM. Moreover, the GI50 in the assay with HS 578T breast was 0.521 µM; in the assay with OVCAR-5 ovarian, 1.2 µM; in the assay with UACC-62 melanoma, 0.298 µM; in the assay on OVCAR-4 ovarian it was 0.845 µM. The TGI in the assay with PC-3 prostate was 2.39 µM; in the assay with UACC-257 melanoma it was 3.29 µM; in the assay with U251 CNS, 1.76 µM; in the assay on NCI-H522 lung it was 1.48 µM; in the assay with T-47D breast it was 2.2 µM; in the assay with LOX IMVI melanoma it was 1.84 µM. Besides, the TGI with HS 578T breast is 4.44 µM; with OVCAR-5 ovarian, 3.4 µM; with UACC-62 melanoma it was 1.7 µM; in the assay with OVCAR-4 ovarian, 3.66 µM.

As for `CCCCCCCCCCCCCCCCS(=O)(=O)c1ccc(NN)cc1`, the TGI with PC-3 prostate, in the assay on UACC-257 melanoma, in the assay on U251 CNS, in the assay on NCI-H522 lung, in the assay with T-47D breast and in the assay with LOX IMVI melanoma was more than 10 µM throughout. Also, the TGI in the assay with HS 578T breast, in the assay on OVCAR-5 ovarian, in the assay on UACC-62 melanoma and in the assay on OVCAR-4 ovarian was more than 10 µM each time.

Consider `C=CC(=O)Nc1cccc(Nc2nc(Nc3ccc(OCCOC(F)F)cc3)ncc2F)c1`, for which the GI50 was 4.01 µM in the assay on PC-3 prostate; 5.56 µM with UACC-257 melanoma; 2.39 µM in the assay with U251 CNS; 1.88 µM with NCI-H522 lung; 1.83 µM with T-47D breast; 1.37 µM in the assay with LOX IMVI melanoma. In addition, the GI50 is 2.13 µM in the assay on HS 578T breast, 4.12 µM in the assay with OVCAR-5 ovarian, 1.73 µM in the assay with UACC-62 melanoma and 2.66 µM in the assay with OVCAR-4 ovarian. Also, the TGI in the assay with PC-3 prostate stood at 27.1 µM; in the assay with UACC-257 melanoma it was 47.5 µM; with U251 CNS, 18.9 µM; in the assay with NCI-H522 lung, 7.44 µM; in the assay on T-47D breast, 9.98 µM; in the assay with LOX IMVI melanoma, 4.52 µM. Also, the TGI in the assay with HS 578T breast is 8.77 µM; in the assay on OVCAR-5 ovarian it was more than 100 µM; in the assay on UACC-62 melanoma, 11.1 µM; in the assay with OVCAR-4 ovarian it was more than 100 µM.

Turning to `O=C(Nc1ccccc1O)c1ccc(CNC(=O)c2ccsc2Nc2ccnc(C(F)(F)F)c2)cc1`, the GI50 in the assay on PC-3 prostate was 1.94 µM; with UACC-257 melanoma, 1.52 µM; with U251 CNS, 1.65 µM; with NCI-H522 lung, 1.77 µM; in the assay on T-47D breast it was 2.71 µM; in the assay with LOX IMVI melanoma, 1.63 µM. The GI50 is 2.71 µM in the assay on HS 578T breast, 2.05 µM with OVCAR-5 ovarian, 1.43 µM with UACC-62 melanoma and 1.74 µM in the assay with OVCAR-4 ovarian. The TGI with PC-3 prostate was 20.8 µM; in the assay with UACC-257 melanoma, 7.03 µM; in the assay with U251 CNS, 5.07 µM; in the assay on NCI-H522 lung, 6.86 µM; in the assay with T-47D breast it was more than 100 µM; in the assay on LOX IMVI melanoma it was 3.99 µM. For the same compound, the TGI was 16.2 µM in the assay with HS 578T breast, 14.7 µM in the assay with OVCAR-5 ovarian, 4.83 µM with UACC-62 melanoma and more than 100 µM in the assay on OVCAR-4 ovarian.

With `CCc1cccc(CC)c1/C=C/c1cncc(C(=O)NC)c1`, the GI50 is 13.9 µM in the assay with PC-3 prostate; more than 13.5 µM in the assay on UACC-257 melanoma; 10.6 µM in the assay with U251 CNS; 8.82 µM in the assay on NCI-H522 lung; 11.9 µM in the assay on T-47D breast; 11.5 µM with LOX IMVI melanoma. The GI50 is 7.65 µM in the assay with HS 578T breast, more than 17.6 µM in the assay with OVCAR-5 ovarian, 10 µM in the assay on UACC-62 melanoma and more than 21.4 µM with OVCAR-4 ovarian. Also, the TGI was more than 25 µM with PC-3 prostate; more than 25 µM in the assay with UACC-257 melanoma; more than 25 µM in the assay with U251 CNS; more than 23.9 µM in the assay on NCI-H522 lung; more than 25 µM in the assay on T-47D breast; more than 25 µM in the assay on LOX IMVI melanoma. Besides, the TGI in the assay on HS 578T breast, in the assay on OVCAR-5 ovarian, in the assay with UACC-62 melanoma and in the assay with OVCAR-4 ovarian was more than 25 µM in each case.

For `O=c1oc2ccc(F)cc2c(=O)n1-c1ccc(Br)cc1F`, the GI50 was 1.52 µM in the assay on PC-3 prostate; 0.528 µM in the assay on UACC-257 melanoma; 0.786 µM in the assay with U251 CNS; 0.363 µM in the assay with NCI-H522 lung; 0.651 µM in the assay on T-47D breast; 0.456 µM in the assay on LOX IMVI melanoma. Besides, the GI50 with HS 578T breast is 0.621 µM; in the assay with OVCAR-5 ovarian, 3.94 µM; in the assay with UACC-62 melanoma, 0.284 µM; with OVCAR-4 ovarian, 1.27 µM. Besides, the TGI in the assay with PC-3 prostate was 7.42 µM; with UACC-257 melanoma it was 7.37 µM; with U251 CNS it was more than 100 µM; with NCI-H522 lung, 9.38 µM; in the assay with T-47D breast, 7.61 µM; in the assay with LOX IMVI melanoma it was 4.24 µM. In addition, the TGI with HS 578T breast was 7.87 µM; in the assay with OVCAR-5 ovarian, more than 100 µM; in the assay on UACC-62 melanoma, 1.16 µM; with OVCAR-4 ovarian, more than 42.8 µM.

For the compound `COc1ccc2c(c1)nc1n2C(c2ccc(F)cc2)SC1` (stereo not given), the GI50 is 27.1 µM in the assay with PC-3 prostate; 28.7 µM in the assay on UACC-257 melanoma; 27.9 µM with U251 CNS; 18.1 µM in the assay on NCI-H522 lung; 14.4 µM in the assay with T-47D breast; 24.8 µM in the assay with LOX IMVI melanoma. Besides, the GI50 is 28.3 µM with HS 578T breast, 33.6 µM with OVCAR-5 ovarian, 16.6 µM with UACC-62 melanoma and 33.8 µM in the assay on OVCAR-4 ovarian. Moreover, the TGI is more than 100 µM in the assay with PC-3 prostate; more than 100 µM in the assay on UACC-257 melanoma; 83.7 µM in the assay on U251 CNS; 66.3 µM in the assay on NCI-H522 lung; 51 µM in the assay with T-47D breast; 61 µM with LOX IMVI melanoma. The TGI is 70.5 µM in the assay with HS 578T breast, more than 100 µM with OVCAR-5 ovarian, 34.9 µM with UACC-62 melanoma and more than 100 µM in the assay with OVCAR-4 ovarian.

On to `Cc1ccc(/C=C2\CNC/C(=C\c3ccc(C)cc3)C2=O)cc1`, for which the TGI with PC-3 prostate was 13.2 µM; in the assay on UACC-257 melanoma, 3.55 µM and 12.8 µM; with U251 CNS it was 0.707 µM and 1.76 µM; in the assay on NCI-H522 lung, 3.04 µM and 4.63 µM; in the assay with T-47D breast it was more than 24.8 µM; with LOX IMVI melanoma, 1.49 µM and 2.11 µM. For the same compound, the TGI in the assay with HS 578T breast was more than 100 µM; in the assay on OVCAR-5 ovarian, 3.56 µM and 33.9 µM; with UACC-62 melanoma, 4.36 µM; with OVCAR-4 ovarian, 4.04 µM and 23.1 µM. The GI50 in the assay with UACC-257 melanoma was 1.71 µM; with U251 CNS, 0.227 µM; in the assay with NCI-H522 lung, 1.64 µM; with LOX IMVI melanoma it was 0.403 µM; in the assay with OVCAR-5 ovarian, 1.89 µM; with OVCAR-4 ovarian it was 1.89 µM.

The values above are taken from PubChem BioAssay (NCI).
